# Measured values taken from ChEMBL document CHEMBL1201862, “PubChem BioAssay data set” (2004).
#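 Compound exposure: 48 hours, 5 concentrations, 96-well plates. GI50 marks 50% less growth.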 The source made the active and inactive calls. Rule as the data show it: active = GI50 up to about 1.1 µM and inactive = higher.
# Key:
# Assay in all cases: NCI tumour cell line growth inhibition, 48 h
# [1] = test system: SR
# [2] = test system: SK-OV-3
# [3] = test system: HOP-62
# [4] = test system: OVCAR-3
# [5] = test system: LOX IMVI
# [6] = test system: RPMI-8226
# [7] = test system: KM12
# [8] = test system: SN12C
# [9] = test system: TK-10
# [10] = test system: SNB-78
# [11] = test system: XF498
# [12] = test system: HCC 2998
# [13] = test system: 786-0
# [14] = test system: NCI-H522
# [15] = test system: Malme-3M
# [16] = test system: IGROV-1
# [17] = test system: ACHN
# [18] = test system: UO-31
# [19] = test system: SK-MEL-2
# [20] = test system: HOP-92
# [21] = test system: NCI-H460
# [22] = test system: SK-MEL-28
# [23] = test system: SF-268
# [24] = test system: KM-20L2
# [25] = test system: SW-620
# [26] = test system: HL-60
# [27] = test system: LXFL 529
# [28] = test system: UACC-62
# [29] = test system: SNB-75
# [30] = test system: CCRF-CEM
# [31] = test system: DMS-273
# [32] = test system: SF-539
# [33] = test system: UACC-257
# [34] = test system: OVCAR-8
# [35] = test system: SK-MEL-5
# [36] = test system: NCI-H226
# [37] = test system: HCT-15
# [38] = test system: M19-MEL
# [39] = test system: COLO 205
# [40] = test system: OVCAR-5
# [41] = test system: K562
# [42] = test system: M14
# [43] = test system: EKVX
# [44] = test system: NCI-H23
# [45] = test system: MOLT-4
# [46] = test system: HOP-18
# [47] = test system: DMS-114
# [48] = test system: RXF 631
# [49] = test system: HT-29
# [50] = test system: U-251
# [51] = test system: SNB-19
# [52] = test system: SF-295
structure (smiles),measurement,setting,value
OCc1c(-c2cccc3ccccc23)sc(-c2cccc3ccccc23)c1CO,GI50,[1],13.5 µM (inactive)
same,GI50,[2],15.2 µM (inactive)
same,GI50,[3],13 µM (inactive)
same,GI50,[4],13.4 µM (inactive)
same,GI50,[5],14.6 µM (inactive)
same,GI50,[6],6.9 µM (inactive)
same,GI50,[7],12.4 µM (inactive)
same,GI50,[8],13.5 µM (inactive)
same,GI50,[9],13.1 µM (inactive)
same,GI50,[10],16.2 µM (inactive)
same,GI50,[11],6.89 µM (inactive)
same,GI50,[12],18.1 µM (inactive)
same,GI50,[13],14 µM (inactive)
same,GI50,[14],10.5 µM (inactive)
same,GI50,[15],12.2 µM (inactive)
same,GI50,[16],14.1 µM (inactive)
same,GI50,[17],12.3 µM (inactive)
same,GI50,[18],11.1 µM (inactive)
same,GI50,[19],14.6 µM (inactive)
same,GI50,[20],15.1 µM (inactive)
same,GI50,[21],14.3 µM (inactive)
same,GI50,[22],10.4 µM (inactive)
same,GI50,[23],13.2 µM (inactive)
same,GI50,[24],11.7 µM (inactive)
same,GI50,[25],15.6 µM (inactive)
same,GI50,[26],15.5 µM (inactive)
same,GI50,[27],14 µM (inactive)
same,GI50,[28],11.3 µM (inactive)
same,GI50,[29],14.3 µM (inactive)
same,GI50,[30],6.41 µM (inactive)
same,GI50,[31],15.2 µM (inactive)
same,GI50,[32],15.3 µM (inactive)
same,GI50,[33],12.8 µM (inactive)
same,GI50,[34],13 µM (inactive)
same,GI50,[35],11.3 µM (inactive)
same,GI50,[36],16.7 µM (inactive)
same,GI50,[37],14.7 µM
same,GI50,[38],15.5 µM (inactive)
same,GI50,[39],11.6 µM (inactive)
same,GI50,[40],17 µM (inactive)
same,GI50,[41],6.5 µM (inactive)
same,GI50,[42],14.5 µM (inactive)
same,GI50,[43],11.3 µM (inactive)
same,GI50,[44],14.5 µM (inactive)
same,GI50,[45],9.04 µM (inactive)
same,GI50,[46],13.5 µM (inactive)
same,GI50,[47],9.1 µM (inactive)
same,GI50,[48],18.2 µM (inactive)
same,GI50,[49],15.3 µM (inactive)
same,GI50,[50],12.2 µM (inactive)
same,GI50,[51],12.5 µM (inactive)
same,GI50,[52],14.1 µM (inactive)
